From PubChem BioAssay AID1259411 (Chemical Carcinogenesis Research Information System (CCRIS), 2018)
Calls of active or inactive are those of the source. The rule behind the calls is not given here.

System: rodent carcinogenicity bioassays, tumor incidence
Assay: CCRIS carcinogenicity studies
Method in brief: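 Archive of carcinogenicity, mutagenicity, tumor promotion and tumor inhibition results drawn from journals, NCI reports and other sources, expert-reviewed; covers 1985-2011 and is no longer updated.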

In the case of Oc1cccc(O)c1, the carcinogen call (Species: MOUSE, Strain/Sex: B6C3F1/FEMALE, Route: GAVAGE, Dose: 0, 112, 225 MG/KG IN DEIONIZED WATER 5 D/WK FOR 104 WK (STUDY DURATION: 104 WK), Dose: 0, 112, 225 MG/KG IN DEIONIZED WATER 5 D/WK FOR 104 WK (STUDY DURATION: 104 WK)) was “inactive; negative”, the carcinogen call (Species: MOUSE, Strain/Sex: B6C3F1/MALE, Route: GAVAGE, Dose: 0, 112, 225 MG/KG IN DEIONIZED WATER 5 D/WK FOR 104 WK (STUDY DURATION: 104 WK), Dose: 0, 112, 225 MG/KG IN DEIONIZED WATER 5 D/WK FOR 104 WK (STUDY DURATION: 104 WK)) was “inactive; negative” and the carcinogen call (Species: RAT, Strain/Sex: F344/FEMALE, Route: GAVAGE, Dose: 0, 50, 100, 150 MG/KG IN DEIONIZED WATER 5 D/WK FOR 104 WK (STUDY DURATION: 104 WK), Dose: 0, 50, 100, 150 MG/KG IN DEIONIZED WATER 5 D/WK FOR 104 WK (STUDY DURATION: 104 WK)) was “inactive; negative”. For the same molecule, the carcinogen call (Species: RAT, Strain/Sex: F344/MALE, Route: GAVAGE, Dose: 0, 112, 225 MG/KG IN DEIONIZED WATER 5 D/WK FOR 104 WK (STUDY DURATION: 104 WK), Dose: 0, 112, 225 MG/KG IN DEIONIZED WATER 5 D/WK FOR 104 WK (STUDY DURATION: 104 WK)) was “inactive; negative”.
CCCOC(N)=O was tested, and the carcinogen call (Species: MOUSE, Route: INTRAPERITONEAL, Tumor Site: Type of Lesion: LUNG) was “active; positive”.
CCc1cc2ccccc2c2ccc3c(c12)[C@@H]1O[C@@H]1[C@H](O)[C@H]3O was tested, and the carcinogen call (Species: MOUSE, Strain/Sex: ICR/FEMALE, Route: INTRAPERITONEAL, Dose: 0, 8 NMOL IN 5 µL DMSO ON D 1, 16 NMOL IN 10 µL ON D 8 AND 32 NMOL IN 20 µL ON D 15 OF LIFE (STUDY DURATION: 35 WK)) was “inactive; negative” and the carcinogen call (Species: MOUSE, Strain/Sex: ICR/MALE, Route: INTRAPERITONEAL, Dose: 0, 8 NMOL IN 5 µL DMSO ON D 1, 16 NMOL IN 10 µL ON D 8 AND 32 NMOL IN 20 µL ON D 15 OF LIFE (STUDY DURATION: 35 WK)) was “inactive; negative”.
O=C1OCCO1 was tested, and the carcinogen call (Species: RAT, Strain/Sex: STRAIN-CD/FEMALE, Route: ORAL, Dose: 25000, 50000 PPM IN DIET FOR 78 WK) was “inactive; negative” and the carcinogen call (Species: RAT, Strain/Sex: STRAIN-CD/MALE, Route: ORAL, Dose: 25000, 44360 PPM IN DIET FOR 78 WK, TWA) was “inactive; negative”.
With CC(=O)[O-].CC(=O)[O-].[OH-].[OH-].[OH-].[OH-].[Pb+2].[Pb+2].[Pb+2] the carcinogen call (Species: MOUSE, Strain/Sex: STRAIN-A/MALE,FEMALE, Route: INTRAPERITONEAL, Dose: 30, 75, 150 MG/KG 3/WK FOR 5 WK, Dose: 30, 75, 150 MG/KG 3/WK FOR 5 WK, Tumor Site: Type of Lesion: LUNG: ADENOMA) was “active; positive”, the carcinogen call (Species: MOUSE, Strain/Sex: SWISS/MALE, Route: ORAL, Dose: 0.1% IN DIET FOR TWO YR, Tumor Site: Type of Lesion: KIDNEY: ADENOMA, CARCINOMA) was “active; positive” and the carcinogen call (Species: RAT, Strain/Sex: SPRAGUE-DAWLEY/MALE, Route: ORAL, Dose: 1% IN DIET, Tumor Site: Type of Lesion: KIDNEY: ADENOMA, CARCINOMA, BRAIN: GLIOMA) was “active; positive”. The carcinogen call (Species: RAT, Strain/Sex: WISTAR/MALE,FEMALE, Route: ORAL, Dose: 0.1, 1.0% IN DIET FOR UP TO 29 MO, Tumor Site: Type of Lesion: KIDNEY: CARCINOMA) was “active; positive”.
In the case of CN(C)P(=O)(N(C)C)N(C)C, the carcinogen call (Species: RAT, Route: INHALATION, Tumor Site: Type of Lesion: NASAL CAVITY) was “active; positive”, the carcinogen call (Species: RAT, Strain/Sex: STRAIN-CD/MALE,FEMALE, Route: INHALATION, Dose: 0, 10, 50, 100, 400, 4000 PPB FOR 6-24 MO (STUDY DURATION: 2 YR), Dose: 0, 10, 50, 100, 400, 4000 PPB FOR 6-24 MO (STUDY DURATION: 2 YR), Tumor Site: Type of Lesion: NASAL CAVITY: EPIDERMOID CARCINOMA) was “active; positive” and the carcinogen call (Species: RAT, Strain/Sex: STRAIN-CD/MALE,FEMALE, Route: INHALATION, Dose: 0, 10, 50, 100, 400, 4000 PPB FOR 6-24 MO, STUDY DURATION: 24-25 MO, Dose: 0, 10, 50, 100, 400, 4000 PPB FOR 6-24 MO, STUDY DURATION: 24-25 MO, Tumor Site: Type of Lesion: NASAL CAVITY: SQUAMOUS CELL PAPILLOMA, EPIDERMOID CARCINOMA, NASAL CAVITY (ADENOID): SQUAMOUS CELL CARCINOMA) was “active; positive”.
CC(=NC#N)N(C)Cc1ccc(Cl)nc1 was tested, and the carcinogen call (Species: Mouse, Strain/Sex: Crl:CD-1 (ICR)BR/Female, Route: Oral, Dose: 0, 130, 400, 1200 ppm (0; 25; 76; 215 mg/kg/day) in feed for 18 mo, Dose: 0, 130, 400, 1200 ppm (0; 25; 76; 215 mg/kg/day) in feed for 18 mo) was “inactive; negative”, the carcinogen call (Species: Mouse, Strain/Sex: Crl:CD-1 (ICR)BR/Male, Route: Oral, Dose: 0, 130, 400, 1200 ppm (0; 20; 66; 186 mg/kg/day) in feed for 18 mo, Dose: 0, 130, 400, 1200 ppm (0; 20; 66; 186 mg/kg/day) in feed for 18 mo) was “inactive; negative” and the carcinogen call (Species: Rat, Strain/Sex: Crl:CD BR/Female, Route: Oral, Dose: 0, 160, 400, 1000 ppm (0; 8.8; 22.6; 60.0 mg/kg/day) in feed for 2 yr, Dose: 0, 160, 400, 1000 ppm (0; 8.8; 22.6; 60.0 mg/kg/day) in feed for 2 yr) was “inactive; negative”. For the same molecule, the carcinogen call (Species: Rat, Strain/Sex: Crl:CD BR/Male, Route: Oral, Dose: 0, 160, 400, 1000 ppm (0; 7.1; 17.5; 46.4 mg/kg/day) in feed for 2 yr, Dose: 0, 160, 400, 1000 ppm (0; 7.1; 17.5; 46.4 mg/kg/day) in feed for 2 yr) was “inactive; negative”.
In the case of COc1cc(-c2ccc(N/N=C3/C(=O)c4c(N)cc(S(=O)(=O)O)cc4C=C3S(=O)(=O)O)c(OC)c2)ccc1N/N=C1/C(=O)c2c(N)cc(S(=O)(=O)O)cc2C=C1S(=O)(=O)O, the carcinogen call (Species: RAT, Strain/Sex: F344/FEMALE, Route: ORAL, Dose: 0, 630, 1250, 2500 PPM IN DRINKING WATER FOR 22 MO (STUDY DURATION: 22 MO), Dose: 0, 630, 1250, 2500 PPM IN DRINKING WATER FOR 22 MO (STUDY DURATION: 22 MO), Tumor Site: Type of Lesion: CLITORAL GLAND: ADENOMA, CARCINOMA, LIVER: NEOPLASTIC NODULE OR HEPATOCELLULAR CARCINOMA, ORAL CAVITY (TONGUE OR PHARYNX, Tumor Site: Type of Lesion: CLITORAL GLAND: ADENOMA, CARCINOMA, LIVER: NEOPLASTIC NODULE OR HEPATOCELLULAR CARCINOMA, ORAL CAVITY (TONGUE OR PHARYNX) was “active; positive” and the carcinogen call (Species: RAT, Strain/Sex: F344/MALE, Route: ORAL, Dose: 0, 630, 1250, 2500 PPM IN DRINKING WATER FOR 22 MO (STUDY DURATION: 22 MO), Dose: 0, 630, 1250, 2500 PPM IN DRINKING WATER FOR 22 MO (STUDY DURATION: 22 MO), Tumor Site: Type of Lesion: LARGE INTESTINE: ADENOMATOUS POLYP OR ADENOCARCINOMA, LIVER: NEOPLASTIC NODULE OR HEPATOCELLULAR CARCINOMA, ORAL CAVITY, Tumor Site: Type of Lesion: LARGE INTESTINE: ADENOMATOUS POLYP OR ADENOCARCINOMA, LIVER: NEOPLASTIC NODULE OR HEPATOCELLULAR CARCINOMA, ORAL CAVITY) was “active; positive”.
